Reference: patent US6603044B1, “Phthalamide derivatives, or salt thereof agrohorticultural insecticide, and method for using the same” (Nihon Nohyaku Co., Ltd., priority 1998, dated 2003)

What was measured:
Assay type in all cases: in vivo
[1] = tested on: Diamond Back Moth (Plutella xylostella); experiment: Insecticidal effect on diamond back moth (Test Example 1); conditions: 50 ppm; Chinese cabbage seedling with deposited eggs immersed about 30 seconds; 25° C.; six days after the immersion
Method in brief: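 Mortality was scored six days after treatment by counting hatched insects, in three groups of 10. Treatment meant immersing egg-bearing cabbage seedlings (two days post-oviposition) for about 30 seconds in 50 ppm compound preparation, then drying and holding at 25° C.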

[2] = tested on: Common Cutworm (Spodoptera Litura); experiment: Insecticidal effect on common cutworm (Test Example 2); conditions: 50 ppm; cabbage leaf immersed about 30 seconds; second-instar larvae; 25° C.; eight days after the inoculation
Excerpt: Insecticidal Effect on Common Cutworm (Spodoptera Litura)
A piece of cabbage leaf (cultivar; Shikidori) was immersed for about 30 seconds in a liquid chemical prepared by diluting a preparation containing each compound listed in Table 1, 2 or 3 as an active ingredient to adjust the concentration to 50 ppm. After air-dryness, it was placed in a plastic Petri dish with a diameter of 9 cm and inoculated with second-instar larvae of common cutworm, after which the dish was closed and then allowed to stand in a room thermostatted at 25° C. Eight days after the inoculation, the dead and alive were counted. The mortality was calculated according to the following equation and the insecticidal effect was judged according to the criterion shown in Test Example 1. The test was carried out with triplicate groups of 10 insects. [formula]

[3] = tested on: Smaller tea Tortrix (Adoxophyes sp.); experiment: Insecticidal effect on smaller tea tortrix (Test Example 3); conditions: 50 ppm; tea leaf immersed 30 seconds; larvae; 25° C., humidity 70%; eight days after the inoculation
Method in brief: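 Dead and live larvae of Adoxophyes sp. were counted on day 8, with three replicates of 10 insects each. Larvae had been placed on tea leaves pre-treated by 30 s immersion in a 50 ppm compound solution and kept at 25° C, 70% humidity.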

CSCCC(C)NC(=O)c1cccc(I)c1C(=O)Nc1ccc(C(F)(C(F)(F)F)C(F)(F)F)cc1C (stereo not shown) [Compound No. 162, 6-Iodo-N^1-(4-heptafluoroisopropyl-2-methylphenyl)-N^2-(1-methyl-3-methylthiopropyl)phthalamide]
Test Example 1 insecticidal effect (mortality) [1]: A (100)
Test Example 2 insecticidal effect (mortality) [2]: A (100)
Test Example 3 insecticidal effect (mortality) [3]: A (100)

CSCCC(C)NC(=O)c1c(I)cccc1C(=O)Nc1ccc(C(F)(C(F)(F)F)C(F)(F)F)cc1C (stereo not shown) [Compound No. 195, 3-Iodo-N^1-(4-heptafluoroisopropyl-2-methylphenyl)-N^2-(1-methyl-3-methylsulfenylpropyl)-phthalamide]
Test Example 1 insecticidal effect (mortality) [1]: A (100)
Test Example 2 insecticidal effect (mortality) [2]: A (100)
Test Example 3 insecticidal effect (mortality) [3]: A (100)

Cc1cc(C(F)(C(F)(F)F)C(F)(F)F)ccc1NC(=O)c1cccc(I)c1C(=O)NC(C)CCS(C)(=O)=O (stereo not shown) [Compound No. 196, 3-Iodo-N^1-(4-heptafluoroisopropyl-2-methylphenyl)-N^2-(1-methyl-3-methylsulfonylpropyl)-phthalamide]
Test Example 1 insecticidal effect (mortality) [1]: A (100)
Test Example 2 insecticidal effect (mortality) [2]: A (100)
Test Example 3 insecticidal effect (mortality) [3]: A (100)

CSCC(C)NC(=O)c1c(OC(F)(F)F)cccc1C(=O)Nc1ccc(C(F)(C(F)(F)F)C(F)(F)F)cc1C (stereo not shown) [Compound No. 210, N^1-(4-Heptafluoroisopropyl-2-methylphenyl)-N^2-3-(1-methyl-2-methylthioethyl)-3-trifluoromethoxyphthalamide]
Test Example 1 insecticidal effect (mortality) [1]: A (100)
Test Example 2 insecticidal effect (mortality) [2]: A (100)
Test Example 3 insecticidal effect (mortality) [3]: A (100)

C[S+]([O-])CC(C)(C)NC(=O)c1c(Br)cccc1C(=O)Nc1ccc(OC(F)(F)F)cc1Cl (stereo not shown) [compound 232]
Test Example 1 insecticidal effect (mortality) [1]: A (100)
Test Example 2 insecticidal effect (mortality) [2]: A (100)

CSCC(C)NC(=O)c1c(I)cccc1C(=O)Nc1ccc(OC(F)(F)F)cc1Cl (stereo not shown) [compound 233]
Test Example 1 insecticidal effect (mortality) [1]: A (100)
Test Example 2 insecticidal effect (mortality) [2]: A (100)

CCS(=O)(=O)CC(C)(C)NC(=O)c1c(I)cccc1C(=O)Nc1ccc(OC(F)(F)F)cc1C [compound 250]
Test Example 1 insecticidal effect (mortality) [1]: A (100)
Test Example 2 insecticidal effect (mortality) [2]: A (100)

CSCC(C)NC(=O)c1c(C(=O)Nc2ccc(OC(F)(F)F)cc2C)ccc2c1OC(F)(F)O2 (stereo not shown) [compound 290]
Test Example 1 insecticidal effect (mortality) [1]: A (100)
Test Example 2 insecticidal effect (mortality) [2]: D (79-50)

Cc1cc(C(F)(F)F)ccc1NC(=O)c1cccc(Br)c1C(=O)NC(C)(C)C[S+](C)[O-] (stereo not shown) [compound 311]
Test Example 1 insecticidal effect (mortality) [1]: A (100)
Test Example 2 insecticidal effect (mortality) [2]: A (100)

CSCC(C)NC(=O)c1c(Br)cccc1C(=O)Nc1ccc(OC(F)(F)F)cc1Cl (stereo not shown) [compound 337]
Test Example 1 insecticidal effect (mortality) [1]: A (100)
Test Example 2 insecticidal effect (mortality) [2]: A (100)

CC(C[S+](C)[O-])NC(=O)c1c(Br)cccc1C(=O)Nc1ccc(OC(F)(F)F)cc1Cl (stereo not shown) [compound 338]
Test Example 1 insecticidal effect (mortality) [1]: A (100)
Test Example 2 insecticidal effect (mortality) [2]: A (100)

COCC[S+]([O-])CC(C)NC(=O)c1c(I)cccc1C(=O)Nc1ccc(C(F)(C(F)(F)F)C(F)(F)F)cc1C (stereo not shown) [compound 340]
Test Example 1 insecticidal effect (mortality) [1]: A (100)
Test Example 2 insecticidal effect (mortality) [2]: A (100)

C[S+]([O-])CC(C)(C)NC(=O)c1c(Cl)cccc1C(=O)Nc1ccc(OC(F)(F)F)cc1Cl (stereo not shown) [compound 370]
Test Example 1 insecticidal effect (mortality) [1]: A (100)
Test Example 2 insecticidal effect (mortality) [2]: A (100)

Cc1cc(C(F)(F)C(F)(F)F)ccc1NC(=O)c1cccc([N+](=O)[O-])c1C(=O)NC(C)(C)CS(C)(=O)=O [compound 375]
Test Example 1 insecticidal effect (mortality) [1]: A (100)
Test Example 2 insecticidal effect (mortality) [2]: A (100)

CC(C[S+](C)[O-])NC(=O)c1c(Cl)cccc1C(=O)Nc1ccc(OC(F)(F)F)cc1Cl (stereo not shown) [compound 381]
Test Example 1 insecticidal effect (mortality) [1]: A (100)
Test Example 2 insecticidal effect (mortality) [2]: A (100)

CSCC(C)(C)NC(=O)c1c(F)cccc1C(=O)Nc1ccc(OC(F)(F)F)cc1Cl [compound 385]
Test Example 1 insecticidal effect (mortality) [1]: A (100)
Test Example 2 insecticidal effect (mortality) [2]: C (89-80)

Cc1cc(Oc2ncc(C(F)(F)F)cc2Cl)ccc1NC(=O)c1cccc(I)c1C(=O)NC(C)C[S+](C)[O-] (stereo not shown) [compound 410]
Test Example 1 insecticidal effect (mortality) [1]: A (100)
Test Example 2 insecticidal effect (mortality) [2]: A (100)

CNC(=S)SCC(C)NC(=O)c1c(I)cccc1C(=O)Nc1ccc(C(F)(C(F)(F)F)C(F)(F)F)cc1C (stereo not shown) [compound 425]
Test Example 1 insecticidal effect (mortality) [1]: A (100)
Test Example 2 insecticidal effect (mortality) [2]: A (100)
